Assay results published in patent publication US20070292385A1, “Phospholipase Inhibitors Localized in the Gastrointestinal Lumen” (priority 2004, published 2007).
Read-outs that look alike come from different tables or passages of the source.

Columns and labels:
PL A2 = conditions: cited from earlier work
Porcine PLA2 IB = target: T1, Porcine PLA2 IB (Sus scrofa, UniProt P00592); assay: continuous fluorimetric assay for PLA2 activity (PPyrPG vesicles); type: biochemical; conditions: 37° C.
T1 construct: purchased
Source text: A continuous fluorimetric assay for PLA2 activity described in the literature was used to determine IC (Leslie, C C and Gelb, M H (2004) Methods in Molecular Biology “Assaying phospholipase A2 activity”, 284: 229-242, Singer, A G, et al. (2002) Journal of Biological Chemistry “Interfacial kinetic and binding properties of the complete set of human and mouse groups I, II, V, X, and XII secreted phospholipases A2”, 277: 48535-48549, Bezzine, S, et al. (2000) Journal of Biological Chemistry “Exogenously added human group X secreted phospholipase A(2) but not the group IB, IIA, and V enzymes efficiently release arachidonic acid from adherent mammalian cells”, 275: 3179-3191) and references therein.
Generally, this assay used a phosphatidylglycerol (or phosphatidylmethanol) substrate with a pyrene fluorophore on the terminal end of the sn-2 fatty acyl chain. […] The effect of a given inhibitor and inhibitor concentration on any given phospholipase can be determined. […]
In this example, the procedure was performed as follows: • 1. […] The fluorescence was read using an excitation of 342 nm and an emission of 395 nm.
In this example, the IC50 was calculated using the BioDataFit 1.02 (Four Parameter Model) software package. […]

[1] = pharmokinetic study, IV and oral; type: in vivo, mice; conditions: for AUC(0-inf) / Cmax / Tmax / half-life: mouse, plasma; for half-life: read-out: t½ (converted)
Experimental: This example characterized ILY-4001 [2-(3-(2-amino-2-oxoacetyl)-1-(biphenyl-2-ylmethyl)-2-methyl-1H-indol-4-yloxy)acetic acid], alternatively referred to herein as methyl indoxam, with respect to activity, as determined by IC50 assay (Example 1B-1), with respect to cell absorbtion, as determined by in-vitro Caco-2 assay (Example 1B-2) and with respect to bioavailability, as determined using in-vivo mice studies (Example 1B-3).
Bioavailability was calculated as a ratio of AUC-oral/AUC-intravenous (IV). To determine this ratio, a first set of subject animals were given a measured intravenous (IV) dose of ILY-4001, followed by a determination of ILY-4001 levels in the blood at various time points after administration (e.g., 5 minutes through 24 hours). Another second set of animals was similarly dosed using oral administration, with blood levels of ILY-4001 determined at various time points after administration (e.g., 30 minutes through 24 hours). The level of ILY-4001 in systemic circulation were determined by generally accepted methods (for example as described in Evans, G., A Handbook of Bioanalysis and Drug Metabolism. Boca Raton, CRC Press (2004)). Specifically, […]/mass spectrometry/mass spectrometry (LC/MS/MS) analytical methods were used to quantitate plasma concentrations of ILY-4001 after oral and intravenous administration. Pharmacokinetic parameters that were measured include Cmax, AUC, tmax, t1/2, and F (bioavailability).
In this procedure, ILY-4001 was dosed at 3 mg/kg IV and 30 mg/kg oral. […] This indicated about a 72% level of non-absorption of ILY-4001 from the GI tract into systemic circulation.

[2] = in-vivo study on high fat/high sucrose diabetogenic diet (Example 10); design: species or system C57BL/6 mice; conditions: for fasting glucose levels: low dose 25 mg/kg/day
Experimental: ILY-4001 (FIG. 5) was evaluated as a PLA2 IB inhibitor in a set of experiments using wild-type mice and genetically deficient PLA2 (−/−) mice (also referred to herein as PLA2 knock-out (KO) mice). In these experiments, wild-type and PLA2 (−/−) mice were maintained on a high fat/high sucrose diet, details of which are described below.
Briefly, four groups were set up, each having six mice. Three of the groups included six wild-type PLA2 (+/+) mice in each group (eighteen mice total), and one of the groups included six genetically deficient PLA2 (−/−) mice. One of the wild-type groups was used as a wild-type control group, and was not treated with ILY-4001. The other two wild-type groups were treated with ILY-4001—one group at a lower dose (indicated as “L” in Table 1) of 25 mg/kg/day, and the other at a higher dose (indicated as “H” in Table 1) of 90 mg/kg/day. The group comprising the PLA2 (−/−) mice was used as a positive control group.
The experimental protocol used in this study was as follows. The four groups of mice, including wild type and isogenic PLA2 (−/−) C57BL/J mice were acclimated for three days on a low fat/low carbohydrate diet. After the three day acclimation phase, the animals were fasted overnight and serum samples taken to establish baseline plasma cholesterol, triglyceride, and glucose levels, along with baseline body weight. The mice in each of the treatment groups were then fed a high fat/high sucrose diabetogenic diet (Research Diets D12331). 1000 g of the high fat/high sucrose D12331 diet was composed of casein (228 g), DL-methionine (2 g), maltodextrin 10 (170 g), sucrose (175 g), soybean oil (25 g), hydrogenated coconut oil (333.5 g), mineral mix S10001 (40 g), sodium bicarbonate (10.5 g), potassium citrate (4 g), vitamin mix V10001 (10 g), and choline bitartrate (2 g). This diet was supplemented with ILY-4001 treatments such that the average daily dose of the compound ingested by a 25 g mouse was: 0 mg/kg/day (wild-type control group and PLA2 (−/−) control group); 25 mg/kg/day (low-dose wild-type treatment group), or 90 mg/kg/day (high-dose wild-type treatment group). The animals were maintained on the high fat/high sucrose diet, with the designated ILY-4001 supplementation, for a period of ten weeks.
Body weight measurements were taken for all animals in all treatment and control groups at the beginning of the treatment period and at 4 weeks and 10 weeks after initiation of the study. (See Example 10A). Blood draws were also taken at the beginning of the treatment period (baseline) and at 4 weeks and 10 weeks after initiation of the study, in order to determine fasting glucose (See Example 10B). Cholesterol and triglyceride levels were determined from blood draws taken at the beginning of the treatment (baseline) and at ten weeks. (See Example 10C).

Caco-2 monolayers [3] = assay: Caco-2 permeability study; conditions: apical to basolateral
Caco-2 monolayers [4] = test system: Caco-2 monolayers
[5] = low and high doses (25 and 90 mg/kg/day), 10 weeks

T1 sequence (P00592 23-146): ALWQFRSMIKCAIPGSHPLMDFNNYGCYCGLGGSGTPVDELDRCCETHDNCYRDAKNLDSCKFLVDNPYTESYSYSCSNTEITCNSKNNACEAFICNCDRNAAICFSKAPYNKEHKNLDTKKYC

In the case of `CCC1=C(CC(N)=O)c2cc(OCCCP(=O)(O)O)ccc2C1Nc1ccccc1` (stereo not shown), the IC50 (PL A2) is listed as “sub μM range”.
With `Cc1c(C(=O)C(N)=O)c2c(OCC(=O)O)cccc2n1Cc1ccccc1-c1ccccc1` [ILY-4001, 2-(3-(2-amino-2-oxoacetyl)-1-(biphenyl-2-ylmethyl)-2-methyl-1H-indol-4-yloxy)acetic acid] the IC50 (Porcine PLA2 IB) was 0.062 µM, the AUC(0-inf) ([1]; iv, 3 mg/kg) was 2760 ng·h/mL and the Cmax ([1]; iv, 3 mg/kg) was 3170 ng/mL. It also gave a Tmax ([1]; iv, 3 mg/kg) of 0.083 h, an AUC(0-t) ([1]; mouse, plasma, iv, 3 mg/kg; read-out: AUC 0-24)) of 2790 ng·h/mL and a half-life ([1]; iv, 3 mg/kg) of 1.03 h. The AUC(0-inf) ([1]; oral, 30 mg/kg) was 5730 ng·h/mL, the Cmax ([1]; oral, 30 mg/kg) was 2290 ng/mL and the Tmax ([1]; oral, 30 mg/kg) was 1 h. For the same compound, the AUC(0-t) ([1]; mouse, plasma; oral, 30 mg/kg; read-out: AUC 0-24)) was 5950 ng·h/mL, the half-life ([1]; oral, 30 mg/kg) was 1.25 h and the “body weight gain compared to wild-type control group” value ([2]; 25 mg/kg/d and 90 mg/kg/d in diet, week 4 and week 10) was “significantly reduced”. For the same compound, the “plasma levels of cholesterol” value [2, 5] was “substantially reduced”, the “plasma levels of triglycerides” value [2, 5] was “substantially reduced” and the fasting glucose levels ([2]; week four) was “moderately beneficial effect”. For the same compound, the fasting glucose levels ([2]; week ten) was “beneficial effect was not observed” and the apparent permeability (Caco-2 monolayers [3]) was “around 1.66×10^−7 cm/s”.
With Lucifer Yellow the apparent permeability (Caco-2 monolayers [4]) was “around 2.82×10^−7+/−0.37×10^−7 cm/s”.
